The compounds below were run on green foxtail (assay: Test Example 4: herbicidal effect by soil treatment (Table 19, symbol G)). Settings: 320 g/ha.
Assay type: in vivo, green foxtail (Setaria viridis)
Procedure, shortened: (§1)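 Three weeks of greenhouse growth at 25° C. to 30° C. followed a uniform surface spray of water-diluted emulsion at a predetermined herbicide amount. Seeds had been sown beforehand under about 1.5 cm of sterilized diluvial soil. Grading followed criteria set out in an earlier test.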

SMILES	herbicidal effect rating, G: green foxtail
COCc1ccc(-c2sc3ccc(F)cc3c2-c2c(O)c(C)nn(C)c2=O)cc1 [2-022]	5 (Herbicidal rate of 90% or more (almost completely withered))
CCCC(=O)Oc1c(C)nn(C)c(=O)c1-c1c(-c2ccc(COC)cc2)sc2ccc(F)cc12 [2-023]	5 (Herbicidal rate of 90% or more (almost completely withered))
CCCC(=O)Oc1c(C)nn(C)c(=O)c1-c1c(-c2ccc(Cl)cc2)sc2ccc(F)cc12 [2-011]	2 (Herbicidal rate of 20% or more and less than 40%)

These compounds were tested on Japanese bulrush (assay: Test Example 1: herbicidal activity, application before weed generation under submerged conditions (Table 16, symbol B)). Settings: 320 g/ha applied herbicide.
Assay type: in vivo, Japanese bulrush (Schoenoplectus juncoides)
Procedure, shortened: (§2)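 Emulsion formulation, water-diluted to set dose, was put onto the flooded surface (4 cm depth, alluvial soil) the same day weeds were sown and 2.5-leaf rice transplanted. After 3 weeks at 25-30 °C under glass, each species was rated 0 (≤5% kill) to 5 (≥90% kill).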

SMILES	Herbicidal effect on B: Japanese bulrush (grade 0-5)
COCc1ccc(-c2sc3ccc(F)cc3c2-c2c(O)c(C)nn(C)c2=O)cc1 [2-022]	5 (Herbicidal rate of 90% or more (almost completely withered))
CCCC(=O)Oc1c(C)nn(C)c(=O)c1-c1c(-c2ccc(COC)cc2)sc2ccc(F)cc12 [2-023]	0 (Herbicidal rate of 5% or less (almost no effect))
CCCC(=O)Oc1c(C)nn(C)c(=O)c1-c1c(-c2ccc(Cl)cc2)sc2ccc(F)cc12 [2-011]	3 (Herbicidal rate of 40% or more and less than 70%)

Each compound was assayed on redroot pigweed (assay: Test Example 4: herbicidal effect by soil treatment (Table 19, symbol N)). Settings: 320 g/ha.
Assay type: in vivo, redroot pigweed (Amaranthus retroflexus)
Procedure, shortened: as §1

SMILES	herbicidal effect rating, N: redroot pigweed
COCc1ccc(-c2sc3ccc(F)cc3c2-c2c(O)c(C)nn(C)c2=O)cc1 [2-022]	5 (Herbicidal rate of 90% or more (almost completely withered))
CCCC(=O)Oc1c(C)nn(C)c(=O)c1-c1c(-c2ccc(COC)cc2)sc2ccc(F)cc12 [2-023]	5 (Herbicidal rate of 90% or more (almost completely withered))
CCCC(=O)Oc1c(C)nn(C)c(=O)c1-c1c(-c2ccc(Cl)cc2)sc2ccc(F)cc12 [2-011]	4 (Herbicidal rate of 70% or more and less than 90%)

What follows are compounds tested on blackgrass (assay: Test Example 5: herbicidal effect by foliage application, plastic box (Table 20, symbol J)). Settings: foliage application, 320 g/ha, 3 weeks after application.
Assay type: in vivo, blackgrass (Alopecurus myosuroides)
Procedure, shortened: (§3)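 Plants sown in sterilized diluvial soil and grown 14 days in a greenhouse at 25° C to 30° C, then sprayed on the foliage with the compound's emulsion diluted in water to a predetermined herbicide amount. Injury to weeds and crops scored three weeks after application on a visual rating scale.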

SMILES	effect on blackgrass (J)
COCc1ccc(-c2sc3ccc(F)cc3c2-c2c(O)c(C)nn(C)c2=O)cc1 [2-022]	4 (Herbicidal rate of 70% or more and less than 90%)
CCCC(=O)Oc1c(C)nn(C)c(=O)c1-c1c(-c2ccc(COC)cc2)sc2ccc(F)cc12 [2-023]	4 (Herbicidal rate of 70% or more and less than 90%)
CCCC(=O)Oc1c(C)nn(C)c(=O)c1-c1c(-c2ccc(Cl)cc2)sc2ccc(F)cc12 [2-011]	2 (Herbicidal rate of 20% or more and less than 40%)

Each compound was assayed on rice flat sedge (assay: Test Example 3: herbicidal effect by foliage application, Wagner pot (Table 18, symbol E)). Settings: 320 g/ha.
Assay type: in vivo, rice flat sedge (Cyperus iria)
Procedure, shortened: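 Plants were sown in alluvial soil held under 0.1–0.5 cm standing water and grown 14 days in a greenhouse at 25–30 °C. An emulsifiable formulation, water-diluted to the set dose, was then sprayed onto the foliage, and effects were scored three weeks later using previously defined criteria.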

SMILES	herbicidal effect on E (rice flat sedge), rating 0-5
COCc1ccc(-c2sc3ccc(F)cc3c2-c2c(O)c(C)nn(C)c2=O)cc1 [2-022]	4 (Herbicidal rate of 70% or more and less than 90%)
CCCC(=O)Oc1c(C)nn(C)c(=O)c1-c1c(-c2ccc(COC)cc2)sc2ccc(F)cc12 [2-023]	5 (Herbicidal rate of 90% or more (almost completely withered))
CCCC(=O)Oc1c(C)nn(C)c(=O)c1-c1c(-c2ccc(Cl)cc2)sc2ccc(F)cc12 [2-011]	5 (Herbicidal rate of 90% or more (almost completely withered))

These compounds were tested on green foxtail (assay: Test Example 5: herbicidal effect by foliage application, plastic box (Table 20, symbol G)). Settings: foliage application, 320 g/ha, 3 weeks after application.
Assay type: in vivo, green foxtail (Setaria viridis)
Procedure, shortened: as §3

SMILES	effect on green foxtail (G)
COCc1ccc(-c2sc3ccc(F)cc3c2-c2c(O)c(C)nn(C)c2=O)cc1 [2-022]	5 (Herbicidal rate of 90% or more (almost completely withered))
CCCC(=O)Oc1c(C)nn(C)c(=O)c1-c1c(-c2ccc(COC)cc2)sc2ccc(F)cc12 [2-023]	5 (Herbicidal rate of 90% or more (almost completely withered))
CCCC(=O)Oc1c(C)nn(C)c(=O)c1-c1c(-c2ccc(Cl)cc2)sc2ccc(F)cc12 [2-011]	5 (Herbicidal rate of 90% or more (almost completely withered))

What follows are compounds tested on chickweed (assay: Test Example 4: herbicidal effect by soil treatment (Table 19, symbol P)). Settings: 320 g/ha.
Assay type: in vivo, common chickweed (Stellaria media)
Procedure, shortened: as §1

SMILES	herbicidal effect rating, P: chickweed
COCc1ccc(-c2sc3ccc(F)cc3c2-c2c(O)c(C)nn(C)c2=O)cc1 [2-022]	3 (Herbicidal rate of 40% or more and less than 70%)
CCCC(=O)Oc1c(C)nn(C)c(=O)c1-c1c(-c2ccc(COC)cc2)sc2ccc(F)cc12 [2-023]	3 (Herbicidal rate of 40% or more and less than 70%)
CCCC(=O)Oc1c(C)nn(C)c(=O)c1-c1c(-c2ccc(Cl)cc2)sc2ccc(F)cc12 [2-011]	2 (Herbicidal rate of 20% or more and less than 40%)

The compounds below were run on oval-leafed pondweed (assay: Test Example 2: herbicidal activity, application during weed generation under submerged conditions (Table 17, symbol C)). Settings: AAH 320 g/ha; application during weed generation, submerged conditions.
Assay type: in vivo, oval-leafed pondweed (Monochoria vaginalis)
Procedure, shortened: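 In this pot test, flooded alluvial soil (water depth 4 cm) holds all three species sown as a mixture. Once seedlings have one to two leaves, the compound's emulsion, thinned with water to the intended dose, is poured on the water; grading follows after three weeks on the earlier criteria.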

SMILES	herbicidal effect rating, C: oval-leafed pondweed
COCc1ccc(-c2sc3ccc(F)cc3c2-c2c(O)c(C)nn(C)c2=O)cc1 [2-022]	4 (Herbicidal rate of 70% or more and less than 90%)
CCCC(=O)Oc1c(C)nn(C)c(=O)c1-c1c(-c2ccc(COC)cc2)sc2ccc(F)cc12 [2-023]	0 (Herbicidal rate of 5% or less (almost no effect))
CCCC(=O)Oc1c(C)nn(C)c(=O)c1-c1c(-c2ccc(Cl)cc2)sc2ccc(F)cc12 [2-011]	3 (Herbicidal rate of 40% or more and less than 70%)

What follows are compounds tested on barnyard grass (assay: Test Example 5: herbicidal effect by foliage application, plastic box (Table 20, symbol H)). Settings: foliage application, 320 g/ha, 3 weeks after application.
Assay type: in vivo, barnyard grass (Echinochloa crus-galli)
Procedure, shortened: as §3

SMILES	effect on barnyard grass (H)
COCc1ccc(-c2sc3ccc(F)cc3c2-c2c(O)c(C)nn(C)c2=O)cc1 [2-022]	5 (Herbicidal rate of 90% or more (almost completely withered))
CCCC(=O)Oc1c(C)nn(C)c(=O)c1-c1c(-c2ccc(COC)cc2)sc2ccc(F)cc12 [2-023]	5 (Herbicidal rate of 90% or more (almost completely withered))
CCCC(=O)Oc1c(C)nn(C)c(=O)c1-c1c(-c2ccc(Cl)cc2)sc2ccc(F)cc12 [2-011]	5 (Herbicidal rate of 90% or more (almost completely withered))

What follows are compounds tested on wild oat (assay: Test Example 4: herbicidal effect by soil treatment (Table 19, symbol I)). Settings: 320 g/ha.
Assay type: in vivo, wild oat (Avena fatua)
Procedure, shortened: as §1

SMILES	herbicidal effect rating, I: wild oat
COCc1ccc(-c2sc3ccc(F)cc3c2-c2c(O)c(C)nn(C)c2=O)cc1 [2-022]	0 (Herbicidal rate of 5% or less (almost no effect))
CCCC(=O)Oc1c(C)nn(C)c(=O)c1-c1c(-c2ccc(COC)cc2)sc2ccc(F)cc12 [2-023]	0 (Herbicidal rate of 5% or less (almost no effect))
CCCC(=O)Oc1c(C)nn(C)c(=O)c1-c1c(-c2ccc(Cl)cc2)sc2ccc(F)cc12 [2-011]	0 (Herbicidal rate of 5% or less (almost no effect))

These compounds were tested on oval-leafed pondweed (assay: Test Example 1: herbicidal activity, application before weed generation under submerged conditions (Table 16, symbol C)). Settings: 320 g/ha applied herbicide.
Assay type: in vivo, oval-leafed pondweed (Monochoria vaginalis)
Procedure, shortened: as §2

SMILES	Herbicidal effect on C: oval-leafed pondweed (grade 0-5)
COCc1ccc(-c2sc3ccc(F)cc3c2-c2c(O)c(C)nn(C)c2=O)cc1 [2-022]	5 (Herbicidal rate of 90% or more (almost completely withered))
CCCC(=O)Oc1c(C)nn(C)c(=O)c1-c1c(-c2ccc(COC)cc2)sc2ccc(F)cc12 [2-023]	0 (Herbicidal rate of 5% or less (almost no effect))
CCCC(=O)Oc1c(C)nn(C)c(=O)c1-c1c(-c2ccc(Cl)cc2)sc2ccc(F)cc12 [2-011]	3 (Herbicidal rate of 40% or more and less than 70%)

Each compound was assayed on wild oat (assay: Test Example 5: herbicidal effect by foliage application, plastic box (Table 20, symbol I)). Settings: foliage application, 320 g/ha, 3 weeks after application.
Assay type: in vivo, wild oat (Avena fatua)
Procedure, shortened: as §3

SMILES	effect on wild oat (I)
COCc1ccc(-c2sc3ccc(F)cc3c2-c2c(O)c(C)nn(C)c2=O)cc1 [2-022]	3 (Herbicidal rate of 40% or more and less than 70%)
CCCC(=O)Oc1c(C)nn(C)c(=O)c1-c1c(-c2ccc(COC)cc2)sc2ccc(F)cc12 [2-023]	0 (Herbicidal rate of 5% or less (almost no effect))
CCCC(=O)Oc1c(C)nn(C)c(=O)c1-c1c(-c2ccc(Cl)cc2)sc2ccc(F)cc12 [2-011]	3 (Herbicidal rate of 40% or more and less than 70%)

The compounds below were run on velvetleaf (assay: Test Example 5: herbicidal effect by foliage application, plastic box (Table 20, symbol M)). Settings: foliage application, 320 g/ha, 3 weeks after application.
Assay type: in vivo, velvetleaf (Abutilon theophrasti)
Procedure, shortened: as §3

SMILES	effect on velvetleaf (M)
COCc1ccc(-c2sc3ccc(F)cc3c2-c2c(O)c(C)nn(C)c2=O)cc1 [2-022]	5 (Herbicidal rate of 90% or more (almost completely withered))
CCCC(=O)Oc1c(C)nn(C)c(=O)c1-c1c(-c2ccc(COC)cc2)sc2ccc(F)cc12 [2-023]	5 (Herbicidal rate of 90% or more (almost completely withered))
CCCC(=O)Oc1c(C)nn(C)c(=O)c1-c1c(-c2ccc(Cl)cc2)sc2ccc(F)cc12 [2-011]	5 (Herbicidal rate of 90% or more (almost completely withered))

What follows are compounds tested on barnyard grass (assay: Test Example 4: herbicidal effect by soil treatment (Table 19, symbol H)). Settings: 320 g/ha.
Assay type: in vivo, barnyard grass (Echinochloa crus-galli)
Procedure, shortened: as §1

SMILES	herbicidal effect rating, H: barnyard grass
COCc1ccc(-c2sc3ccc(F)cc3c2-c2c(O)c(C)nn(C)c2=O)cc1 [2-022]	5 (Herbicidal rate of 90% or more (almost completely withered))
CCCC(=O)Oc1c(C)nn(C)c(=O)c1-c1c(-c2ccc(COC)cc2)sc2ccc(F)cc12 [2-023]	4 (Herbicidal rate of 70% or more and less than 90%)
CCCC(=O)Oc1c(C)nn(C)c(=O)c1-c1c(-c2ccc(Cl)cc2)sc2ccc(F)cc12 [2-011]	3 (Herbicidal rate of 40% or more and less than 70%)

— patent US20230085307A1, “PYRIDAZINONE COMPOUND AND HERBICIDE” (NISSAN CHEMICAL CORPORATION, priority 2019, published 2023)
